Assay results: US10456434B2, “Extracts obtained from cell line cultures from plants belonging to the Oleaceae family (e.g. Syringa vulgaris), their preparation and use” (CRODA ITALIANA S. P. A., priority 2005, dated 2019)

Columns and labels:
[1] = test system: Trycophyton rubrum ATCC 28188; assay: Multiple dilution antimycotic assay, Trycophyton rubrum; type: cell-based; details: assayed at 0.625-5 mg/ml
Experimental: With the aim of identifying any potential antifungal activity in the Syringa vulgaris extracts, microbiological assays have been prepared, generally known as multiple dilution assays. Such assays have been performed using the following fungal strains: Trycophyton rubrum ATCC 28188 and Malassezia furfur ST 8036. Syringa vulgaris Extracts 1 and 2, verbascoside and isoverbascoside have been assayed at concentrations of […], 1.25 mg/ml, 2.5 mg/ml and 5 mg/ml. The fungal strains used for testing have been inoculated into culture-broth (in Tryptone soy broth medium, for Malassezia furfur the culture medium has been supplemented with 2 ml/100 ml of olive oil) containing Syringa vulgaris extracts 1 and 2, verbascoside and isoverbascoside at the concentrations described above. In parallel with these tests, culture broths containing the microbial strain alone have been prepared (controls). The culture-broths have, been incubated at 30° C. for a period of 28 days. Samples of the various culture-broths have been taken at 0, 7, 14, 21 and 28 days, with the aim of counting the number of CFU/ml in relation to the various fungal strains, by plating the cultures on solid medium. A certain number of serial dilutions have been prepared for each sample in order to determine the fungal load of each culture-broth. Each dilution has been assayed in triplicate on solid medium. […]

[2] = test system: PC12 cells; assay: Protection against oxidative stress induced cell death in PC12 cells; type: cell-based, rat; details: 72 hours
Description: This assay has the aim of determining the protective capacity, of Syringa vulgaris extracts, in relation to oxidative stress induced cell death in rat pheochromocytoma cell cultures (PC12 cell line).
The assay has been performed as described in the literature (Echevery C. et al. Cytoprotection by neutral fraction of tannat red wine against oxidative stress-induced cell death. J. Agric. Food Chem., 2004, 52(24): 7395-9. Ochiai T. et al. Crocin prevents the death of rat pheo-chromycitoma (PC12) cells by its antioxidant effects stronger than those of alpha-tocopherol. Neurosci. Lett., 2004, 362(1):61-4).
The results obtained are summarised in table 11, and are expressed as the ratio between the numbers of viable cells after 72 hours in the samples with respect to control.

[3] = Superoxide anion chemiluminescent assay (hypoxanthine/xanthine oxidase); type: biochemical; details: mean of 6 independent assays
Description: (§1) The superoxide anion has been measured by a chemiluminescent assay based on the hypoxanthine (HPX)/xanthine oxidase (XOD) reaction using the Lumimax Superoxide Anion Detection Kit (Stratagene, La Jolla, Calif., USA) and following the manufacturer's instructions. Hydroxyl radical scavenger activity has been measured by means of the Fenton reaction for the production of hydroxyl radicals and chemiluminescent dosage (using a Victor^3 chemiluminometer, Wallac, Finland) with luminol. Peroxynitrite ions have been determined by means of dosage with a spontaneous generator of peroxynitrites (3-morpholinosidnonimine hydrochloride; SIN-1) and a stable reagent for the nitroxyl ions (2-(4-carboxyphenyl)-4,4,5,5-tetramethylimidazoline-1-oxyl-3-oxide potassium salt PTIO spin trap) then dosed by means of electron spin resonance (ESR) using a. Nippon Denshi JES-FR30.
(§2) Extract 1 and Extract 2 listed in Table are derived from Syringa vulgaris cell cultures. […] The results are expressed as the concentration inhibiting 50% of activity (IC50). The values reported are the means of 6 independent assays.

[4] = Peroxynitrite assay (SIN-1, PTIO spin trap, ESR); type: biochemical; details: mean of 6 independent assays
Description: as §1, §2

[5] = Hydroxyl radical scavenger activity (Fenton reaction, luminol chemiluminescence); type: biochemical; details: mean of 6 independent assays
Description: as §1, with “Syringa vulgaris Extracts 1 and 2, prepared as described in examples 1 and 2, have been used to assess in vitro antioxidant action with specific oxygen radical generating systems such as the superoxide anion (O2^−), the hydroxyl radical (HO), the peroxynitrite radical (ONOO^−) and the inhibition of lipid peroxidation. The” for “The”, “JES-FR30. […].” for “JES-FR30.”
(§3) Extract 1 and Extract 2 listed in Table are derived from Syringa vulgaris cell cultures. In said extracts, verbascoside is present at 0.82% and 35% by weight respectively. […]

[6] = Fe2+ induced lipid peroxidation (thiobarbituric acid); type: biochemical; details: mean of 6 independent assays
Description: as §1, with “Syringa vulgaris Extracts 1 and 2, prepared as described in examples 1 and 2, have been used to assess in vitro antioxidant action with specific oxygen radical generating systems such as the superoxide anion (O2^−), the hydroxyl radical (HO), the peroxynitrite radical (ONOO^−) and the inhibition of lipid peroxidation. The” for “The”, “JES-FR30. […].” for “JES-FR30.”
as §3

[7] = test system: A549 cells; assay: Oxidative stress (ROS, DCF fluorescence) in A549 cell cultures; type: cell-based, human; details: 20 mM, A549, galactose oxidative stress
Experimental: 10×10^5 A549 cells (ATCC-CCL195) have been seeded into wells with 3 ml of DMEM/medium (HAM'S F12K) with 10% FCS and incubated at 37° C. in a 5% CO2, water vapour saturated atmosphere. After 24 hours the culture medium is replaced by medium supplemented with 5.55 mM galactose, which is left in contact with the cells for 20 hours. The medium is once again replaced with medium containing galactose in the presence or absence of the test compound. After 5 hours, quantitative measurement of the ROSs is performed by washing the cells with phosphate buffer and then incubating them with 30 μM DCF-DA in buffer solution. At the end of a 15 minute incubation, excess DCF-DA is removed from the cells by washing, prior to measuring the fluorescence emitted.
Antioxidant activity measurements are performed using a (Hitachi F3010) spectrophotometer with excitation at 488 nm and measuring emission at 525 nm, and values are expressed in pmoles, by extrapolation from the calibration curve constructed using known quantities of DCF, in relation to total cellular protein. Values are thus expressed in % ages with respect to the ROS, content of the cells not subjected to oxidative stress, to which are assigned a value of 100.
Syringa vulgaris Extracts 1 and 2 and ascorbic acid have been dissolved in phosphate buffer.

Row | SMILES | antimycotic activity towards Trycophyton rubrum (in words) [1] | Ratio of viable treated cells over control ([2]; 100 μg/ml) | Ratio of viable treated cells over control ([2]; 500 μg/ml) | Ratio of viable treated cells over control ([2]; 1000 μg/ml) | Superoxide radical (IC50) [3] | Peroxynitrite radical (IC50) [4] | Hydroxyl radial (IC50) [5] | Lipid peroxidation (IC50) [6] | ROS level (%) [7]
1 | CC1OC(OC2C(O)C(COC(=O)C=Cc3ccc(O)c(O)c3)OC(OCCc3ccc(O)c(O)c3)C2O)C(O)C(O)C1O [Isoverbascoside, b-(3,4-dihydroxyphenyl)-ethyl-O-α-L-ramnopyranosyl(1″-3′)-b-D-(6′-O-caffeoil)glucopyranoside] | activity comparable to Extract 1 | 4 | 10 | 10 |  |  |  |  | 
2 | C[C@@H]1O[C@@H](O[C@@H]2[C@@H](O)[C@H](OCCc3ccc(O)c(O)c3)O[C@H](CO)[C@H]2OC(=O)/C=C/c2ccc(O)c(O)c2)[C@H](O)[C@H](O)[C@H]1O [Verbascoside, b-(3,4-dihydroxyphenyl)-ethyl-O-α-L-ramnopyranosyl (1″-3′)-b-D-(4′-O-caffeoil)-glucopyranoside] | activity comparable to Extract 1 |  |  |  | 3.1 µg/mL | 1.6 µg/mL | 2.2 µg/mL | 7.4 µg/mL | 85 ± 7 %
